Common to all, as to format: binding, mouse
Assay [1] deals with hybridoma clone MAB 1/E2-5/B5. In words: competitive immunoassay (ELISA), cross reactivity with MAB 1/E2-5/B5. The settings on record: n.b. = not determinable. As for the experimental part:
(§1) The screening conjugates described in Section 1.2 were used for this purpose. In addition, "Maxisorp" (from the Nunc Corporation) microtiter plates were used. The immunoscreening method, i.e., an indirect, competitive immunoassay with free antibodies, is shown in the form of a schematic diagram in FIG. 7. First, each of the microtiter plate depressions was coated with 300 μL of hapten OVA conjugate (10 μg/mL in carbonate buffer) (coating). This was carded out over the course of 15-18 hours at 4° C. Then the depressions were washed 3 times with, for example, PBS Tween 20 buffer. To block the unoccupied bonding sites on the microtiter plate, about 300 μL of 0.1% OVA solution was added to each depression. This batch was incubated for 1-2 hours and then washed again as described. To verify the results, two separate screening processes were used (FIG. 7):
(§2) In this immunoassay, the hapten-OVA conjugates bound in the solid phase (Section 1.2) compete with the free antigen in the form of a solution of a mixture of pyrethroids. For the direct detection (Section 5.1), 100 μL of PBS buffer and 100 μL of cell culture supernatant (Section 4) per depression are incubated for one hour at room temperature under gentle agitation. Then a washing step is carried out with PBS Tween 20 buffer. This is followed by incubation with the peroxidase-(POD)-conjugated anti-mouse antibodies known to those skilled in the art. After the addition of enzyme substrate, the color is developed. The reaction is stopped after 30 minutes with 2N H2 SO4 and evaluated by spectrophotometry. The positive hybridoma cells, which secrete a specific antibody, give a strong color signal.
(§3) For this purpose, 100 μL of analyte solution (10 mg/L of pyrethroid substance in mixture MIX I/II in PBS buffed and 100 μL of culture supernatant (Section 4) per depression in the microtiter plate are incubated for 1 hour at room temperature.
(§4) If the cell culture supernatant contains specific antibodies with high affinity for at least one substance in the mixture in question (MIX I/II), these bind to the free hapten present in excess (pyrethrins/pyrethroids) and not to the hapten conjugate bound in the solid phase. The monoclonal antibodies bound to the hapten are then removed in the following washing step. This is followed by the incubation, known to those skilled in the art, with peroxidase-(POD)-conjugated anti-mouse antibodies and by subsequent addition of enzyme substrate and color development. After a predetermined incubation time, the microtiter plates are evaluated by spectrophotometry. Positive hybridoma cells which secrete an antibody selective for the pyrethroids in MIX I/II give a weaker color signal or no signal at all. Hybridoma cells which secrete antibodies which bind non-specifically to the hapten conjugate cannot be displaced by the excess pyrethroid and give a corresponding color signal. If no antibodies are present in the culture supernatant, there is no color reaction in either of the two cases.
(§5) Pyrethrum, pyrethroids, their derivatives, and/or their metabolites are detected with the help of the hapten screening conjugates and biotin tracers described in Section 1 and by the use of the competitive immunoassay (ELISA) described in Section 5.
(§6) In the direct-competitive test for low-molecular substances such as pyrethroids, a competition for a constant number of antibody binding sites takes place between an unmarked analyte of unknown quantity (here: pyrethroid) and a tracer (marked hapten) of known quantity. The antibody is immobilized on a solid phase. Depending on the amount of unmarked analyte in the sample, the antibody binding sites are occupied to a greater or lesser extent by tracer or analyte. The tracer is detected by a color reaction, which means that the detection signal on the solid phase is inversely proportional to the amount of analyte detected. The color development is measured by spectrophotometry at a defined wavelength. […]
A general note: In an ELISA, binding on a coated surface is turned into a signal by an enzyme label.

The subject of assay [2] is hybridoma clone MAB 3/B4-1/F8. Description: competitive immunoassay (ELISA), cross reactivity with MAB 3/B4-1/F8. The settings on record: n.b. = not determinable. As for the experimental part:
as §1, §2, §3, §4, §5, §6

The test system of assay [3] is isolated monoclonal antibodies (groups 3/B4-1/F8 and 1/E2-5/B5). Description: competitive ELISA with the isolated monoclonal antibodies (both groups). The settings on record: both antibody groups. Here is the method: as §1, with “This batch was incubated for 1-2 hours and then washed again as described. To verify the results, two separate screening processes were used (FIG. 7):” left out
In this immunoassay, the hapten-OVA conjugates bound in the solid phase (Section 1.2) compete with the free antigen in the form of a solution of a mixture of pyrethroids. […] The reaction is stopped after 30 minutes with 2N H2 SO4 and evaluated by spectrophotometry. […]
If the cell culture supernatant contains specific antibodies with high affinity for at least one substance in the mixture in question (MIX I/II), these bind to the free hapten present in excess (pyrethrins/pyrethroids) and not to the hapten conjugate bound in the solid phase. […] After a predetermined incubation time, the microtiter plates are evaluated by spectrophotometry. […]

We go through 13 compounds from US5723306A, “Monoclonal antibodies for the detection of pyrethroids and a process for their production” (Dragerwerk Aktiengesellschaft, priority 1993, dated 1998).

For `CC(C)=CC1C(C(=O)O)C1(C)C` (stereo not shown) [CTS, chrysanthemum acid], the “% cross reactivity” value in assay [1] and in assay [2] was “n.b” throughout.
`O=C(O)c1cccc(Oc2ccccc2)c1` [PBZ, 3-phenoxybenzoic acid]: the “% cross reactivity” value in assay [1] and in assay [2] was “n.b” throughout.
Turning to `C=CCC1=C(C)C(OC(=O)C2C(C=C(C)C)C2(C)C)CC1=O` (stereo not shown) [allethrin], the figures for the “% cross reactivity” value in assay [1] and in assay [2] were 100% and 45%, respectively.
In the same order, the values of `C=CCC1=C(C)C(OC(=O)[C@@H]2[C@@H](C=C(C)C)C2(C)C)CC1=O` (stereo partly shown) [bioallethrin] are 104% and 100%.
`CC1(C)[C@H](C(=O)O)[C@@H]1C=C(Cl)Cl` [cis-PMS, (1R,cis)-permethric acid]: the “% cross reactivity” value in assay [1] and in assay [2] was “n.b” in each case. In assay [3], the “cross reactivity (in words)” value is listed as “little or no cross-reactivity”.
Consider `CC1(C)C(C=C(Cl)Cl)C1C(=O)OC(C#N)c1ccc(F)c(Oc2ccccc2)c1` (stereo not shown) [cyfluthrin], for which the “% cross reactivity” value in assay [2] is listed as “n.b”.
On the same count and under the same terms, under `CC1(C)C(C=C(Cl)Cl)C1C(=O)OC(C#N)c1cccc(Oc2ccccc2)c1` (stereo not shown) [cypermethrin] stands “n.b”.
`CC1(C)[C@H](C(=O)O[C@H](C#N)c2cccc(Oc3ccccc3)c2)[C@@H]1C=C(Br)Br` [deltamethrin]: the “% cross reactivity” value in assay [1] and in assay [2] was “n.b” each time.
Consider `CC1(C)[C@H](C=C(Cl)Cl)[C@H]1C(=O)OCc1c(F)c(F)c(F)c(F)c1F` [fenfluthrin], for which the “% cross reactivity” value in assay [1] is 13%; in assay [2], 2%.
In the same order, the values of `CC(C)C(C(=O)OC(C#N)c1cccc(Oc2ccccc2)c1)c1ccc(Cl)cc1` (stereo not shown) [fenvalerat] are “n.b” and “n.b”.
In the case of `CC1(C)C(C=C(Cl)Cl)C1C(=O)OCc1cccc(Oc2ccccc2)c1` (stereo not shown) [permethrin], the “% cross reactivity” value in assay [2] is “n.b”.
As to `CC(C)=CC1C(C(=O)OCc2cccc(Oc3ccccc3)c2)C1(C)C` (stereo not shown) [phenothrin], the “% cross reactivity” value is on record as 86% in assay [1] and “n.b” in assay [2].
As to `CC1(C)[C@H](C=C(Cl)Cl)[C@H]1C(=O)O` [trans-PMS, (1R,trans)-permethric acid], the “% cross reactivity” value in assay [1] is above 1%; in assay [2] it was “n.b”. Further, the “cross reactivity (in words)” value in assay [3] is reported as “little or no cross-reactivity”.
